Blank lines part the entries; values can stand above or below the molecule they belong to.
Key:
[1] = tested on: p46 (EF-Tumt) phosphorylation; assay: Phosphorylation of mitochondrial p46 (EF-Tumt) with [γ-32P]ATP in the presence of kinase inhibitors; assay type: biochemical, rabbit
Procedure: For phosphorylation reactions, 100 μg of purified mitochondria was incubated in MSE buffer supplemented with 25 mmol/L HEPES-KOH [pH 7.5], 10 mmol/L magnesium acetate, 10 μmol/L ATP (cold), and 10 μCi [γ-^32P]ATP for 30 minutes at 30° C. with or without 250 μg of cytosol. The reaction mixture was subsequently centrifuged for 5 minutes at 10,000 g. The mitochondrial pellet was resuspended in 500 μL of MC buffer and washed twice. The mitochondrial proteins were resolved on a 12% polyacrylamide gel, transferred to nitrocellulose, and detected by autoradiography.
For protein kinase inhibition experiments, cytosols were incubated with the inhibitors at the indicated concentrations, then mitochondria were added and the reaction was initiated with the addition of ATP. Serine/threonine kinase inhibitors (Calbiochem, catalog No. 539572) included bisindolylmaleimide I, 10 nmol/L; H-89, 48 μmol/L; protein kinase G inhibitor, 86 μmol/L; ML-7, 0.3 μmol/L; KN-93, 0.37 μmol/L; and staurosporine, 10 nmol/L. Tyrosine kinase inhibitors (Calbiochem, catalogue No. 657021) included genistein, 25 μmol/L; PP2, 5 nmol/L; AG490, 15 μmol/L; AG1296, 1 μmol/L; and AG1478, 3 nmol/L.

[2] = tested on: AMMC demethylase (cytochrome P450) in rat liver microsomes; assay: Fluorometric cytochrome P450 assay, AMMC demethylation in rat liver microsomes; assay type: biochemical; conditions: male, Sprague-Dawley, pH 7.4, probe AMMC (30 μM), AMMC substrate, read-out: IC50, inhibition of AMMC demethylation
Procedure: Microsomes were isolated from rat livers (Sprague-Dawley, male, 6-8 weeks) by differential centrifugation as described by Walles and coworkers (2001). Homogenized tissue was centrifuged at 11,000 g for 30 minutes at 4° C. The supernatant was further centrifuged at 170,000 g for 60 minutes at 4° C. The resulting pellet was resuspended in KCl buffer and centrifuged at 200,000 g for 40 minutes at 4° C. The microsomal fraction was then transferred into Tris-sucrose buffer (0.25 M sucrose, 20 mM Tris buffer, 5 mM EDTA). Protein concentrations were determined by bicinchoninic acid micro assay (Pierce). Microsomal solutions were aliquoted and stored at −80° C. until further use.

[3] = tested on: H9c2 and neonatal rat cardiomyocytes; assay: Hydrogen peroxide-induced apoptosis and superoxide production in cells
CYP2D6 = CYP2D6 (Homo sapiens, UniProt P10635); assay: AMMC demethylation by recombinant CYP2D6; assay type: biochemical; conditions: recombinant system
Chain of CYP2D6 (P10635 whole entry): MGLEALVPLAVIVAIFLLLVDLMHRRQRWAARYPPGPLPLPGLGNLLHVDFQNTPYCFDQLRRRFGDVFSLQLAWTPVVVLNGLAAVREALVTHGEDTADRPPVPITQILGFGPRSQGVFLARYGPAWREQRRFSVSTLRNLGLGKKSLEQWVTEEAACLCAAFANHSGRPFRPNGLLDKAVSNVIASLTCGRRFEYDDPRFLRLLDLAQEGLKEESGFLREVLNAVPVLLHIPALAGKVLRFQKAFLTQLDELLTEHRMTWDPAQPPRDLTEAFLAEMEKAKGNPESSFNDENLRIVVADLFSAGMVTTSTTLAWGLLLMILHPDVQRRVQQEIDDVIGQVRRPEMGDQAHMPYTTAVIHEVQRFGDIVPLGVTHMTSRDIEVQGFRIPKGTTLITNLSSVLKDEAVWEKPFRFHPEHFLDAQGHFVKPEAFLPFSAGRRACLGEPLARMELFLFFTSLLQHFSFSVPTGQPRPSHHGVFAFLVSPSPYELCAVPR

CYP2D2 = target: T1, CYP2D2 (Rattus norvegicus, UniProt P10634); assay: AMMC demethylase activity in CYP2D2 supersomes; conditions: sulfaphenazole 50 μM
T1 sequence (P10634 1-500): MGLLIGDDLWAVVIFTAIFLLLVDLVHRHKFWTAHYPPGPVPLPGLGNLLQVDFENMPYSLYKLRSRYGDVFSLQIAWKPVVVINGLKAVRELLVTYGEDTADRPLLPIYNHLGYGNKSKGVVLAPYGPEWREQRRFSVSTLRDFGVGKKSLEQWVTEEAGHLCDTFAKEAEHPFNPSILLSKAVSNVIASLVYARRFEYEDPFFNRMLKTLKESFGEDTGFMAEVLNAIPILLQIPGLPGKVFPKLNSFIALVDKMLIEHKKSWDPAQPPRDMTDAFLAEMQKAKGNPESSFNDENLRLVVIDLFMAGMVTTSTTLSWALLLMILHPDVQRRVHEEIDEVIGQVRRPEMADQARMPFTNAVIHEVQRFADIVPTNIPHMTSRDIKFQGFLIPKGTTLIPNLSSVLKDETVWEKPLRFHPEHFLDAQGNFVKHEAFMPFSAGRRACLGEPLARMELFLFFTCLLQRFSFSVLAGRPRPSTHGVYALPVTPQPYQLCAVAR

isolated rat hearts = assay: Langendorff perfusion, no-flow ischemia/reperfusion of isolated rat heart (infarct size by TTC, CK release, coronary flow); conditions: for CK release (in words) / infarct size (in words): cimetidine 200-600 μM, sulfaphenazole 10 μM and 300 μM; for infarct size (in words): 2 hours reperfusion; for coronary flow after ischemia: treated hearts, reperfusion
Procedure: FIG. 2. […] Adult rat hearts were perfused in Langendorff mode for 20 minutes, then subjected to 30 minutes no-flow ischemia followed by a 2 hour reperfusion. […] (A) After 2 hours of reperfusion, hearts were frozen and assessed for infarct size using TTC. Coronary effluent was collected for 15 minutes immediately before and after ischemia and assessed for CK release. […] All procedures were approved by the Animal Care and Use Committee at The Scripps Research Institute (TSRI). […] No-flow ischemia was maintained for 30 minutes and reperfusion was accomplished by restoring flow for 15 minutes for creatine kinase (CK) release determination and dihydroethidium (DHE) staining, or 120 minutes for infarct size determination by triphenyl tetrazolium chloride (TTC) staining. Measurement of CK activity was performed using the CK EC 2.7.3.2 UV-Test kit (Sigma) as per the manufacturer's instructions. The measurement of infarct size after TTC staining was performed as described in Example 1.

isolated rabbit heart = assay: Langendorff perfusion, global ischemia/reperfusion of isolated rabbit heart (infarct size by TTC, CK release)
Procedure: The global ischemia protocol was adapted from that of Tsuchida et al. (1994). All procedures were approved by the Animal Care and Use Committee at The Scripps Research Institute (TSRI). To obtain isolated hearts, hearts were excised from an anesthetized mammal such as a rabbit and quickly cannulated onto the Langendorff perfusion apparatus. The heart is perfused with Krebs-Ringer buffer for 15 minutes before ischemia/reperfusion episodes. No-flow ischemia is maintained for 30 minutes and reperfusion is accomplished by restoring flow for 15 minutes (unless otherwise indicated). Ischemic preconditioning can be induced by three 5 minute cycles of no-flow ischemia and reperfusion immediately preceding the regular ischemia and reperfusion. In brief, the heart was excised from the anesthetized rabbit and quickly cannulated onto the Langendorff perfusion apparatus. The heart was perfused with Krebs-Ringer buffer for 15 minutes before ischemia/reperfusion episodes. No-flow ischemia was maintained for 30 minutes and reperfusion was accomplished by restoring flow for 15 minutes (unless otherwise indicated). Ischemic preconditioning was induced by three 5 minute cycles of no-flow ischemia and reperfusion immediately preceding the regular ischemia and reperfusion. The efficacy of these interventions was verified by measurement of creatine kinase (CK) release and infarct size measurement using triphenyl tetrazolium chloride (TTC) staining (Pain et al., 2000; Downey, 2001). The measurement of infarct size was essentially identical to that detailed by Downey (2001) except for the method of quantitation. After the TTC reaction, the heart slices were scanned into TIFF files and analyzed with Adobe Photoshop 5.5. The images were digitally manipulated in an identical manner to ensure equivalent outcome. […] The histogram counts of red and white were recorded. The percent infarction was calculated as white counts divided by the sum of red plus white counts.

[4] = tested on: cytochrome oxidase subunit I; assay: Immunodetection of mitochondrial-encoded proteins after CAP infusion (Example I); design: species or system rabbit; conditions: CAP infusion for as little as 15 minutes
[5] = tested on: mitochondrial-encoded proteins (CO-1, ND3); assay: Western blotting of mitochondrial-encoded proteins after CAP perfusion (Example II); design: species or system rat; conditions: perfusion with CAP for 30 minutes
[6] = tested on: mitochondrial respiratory chain Complex I, II, IV; assay: Oxygen consumption (respiration) of mitochondria from perfused rat hearts; conditions: hearts perfused with chloramphenicol for 30 minutes
Procedure: FIG. 4. […] (B) Mitochondrial respiration was measured by polarography. […] Error bars represent standard deviation. […] Hearts were rapidly minced in ice-cold MSE buffer (in mmol/L, mannitol 220, sucrose 70, EGTA 2, MOPS 5 (pH 7.4), and taurine 2 supplemented with 0.2% fatty acid-free bovine serum albumin (BSA)). Heart tissue was homogenized in MSE with a Polytron type tissue grinder at 11,000 rpm for 2.5 seconds followed by 2 quick strokes at 500 rpm with a loose fit Potter-Elvehjem tissue grinder. The homogenate was centrifuged at 500 g twice for 5 minutes, saving the supernatant. Mitochondria were pelleted from the supernatant by centrifugation at 3000 g twice, and the pellet was rinsed with MSE buffer. The supernatant was saved as crude cytosol. The final pellet was rinsed and resuspended in 50 μl Incubation Medium (in mmol/L, mannitol 220, sucrose 70, EGTA 1, MOPS 5 (pH 7.4), taurine 2, MgCl2 10, and KH2PO4 5, supplemented with 0.2% fatty acid-free BSA) (Scholte et al., 1997). Mitochondria were incubated for 15 minutes on wet ice and protein concentration was determined with BSA as a standard by a Bradford assay. All work was performed on wet ice at 0° C. Oxygen consumption was measured at 30° C. with a Clark type oxygen electrode (Instech) in 600 μl KCl respiration buffer (in mmol/L: KCl 140, EGTA 1, MOPS 10 (pH 7.4), MgCl2 10, and KH2PO4 5, supplemented with 0.2% fatty acid-free BSA) (Scholte et al., 1997; Chance et al., 1961; McKee et al., 1990). Complex II activity was measured using 200 μg mitochondria with succinate, 5 mM, as a substrate. […] For each complex the ADP-stimulated respiration rate (state 3) was measured after the addition of 2 mM ADP; the ADP-independent respiration rate, oligomycin-insensitive (state 4) was measured after the addition of 2 μM oligomycin; and the maximal respiration rate was measured after uncoupling the mitochondria with 2 μM FCCP. Rates were calculated as nA O2/min/mg protein after subtracting the rate that was insensitive to the inhibitors antimycin A, 1 μM, for complex III, and KCN, 1 mM, for complex IV.

[7] = tested on: rabbit heart (circumflex coronary artery occlusion); assay: Rabbit circumflex coronary artery occlusion and reperfusion; assay type: in vivo; conditions: n=6
[8] = mitochondria incubated with control or ischemic cytosols, H-89 48 μmol/L, genistein 25 μmol/L

phosphorylation of p46 ([1]; mitochondria from an ischemic heart incubated with genistein, no cytosol): able to inhibit
phosphorylation of p46 [1, 8]: reduced phosphorylation
Molecule: O=c1c(-c2ccc(O)cc2)coc2cc(O)cc(O)c12 [genistein]

IC50 at 1 h [2]: 500 nM
inhibition of CYP2D6 (AMMC demethylation) (CYP2D6): not inhibited
inhibition of CYP2D2 activity (AMMC demethylase) (CYP2D2): did not appear to significantly inhibit
Molecule: Nc1ccc(S(=O)(=O)Nc2ccnn2-c2ccccc2)cc1 [sulfaphenazole]
rescue from hydrogen peroxide-induced apoptosis and superoxide production [3]: rescued
CK release (in words) (isolated rat hearts): significant reduction
infarct size (in words) (isolated rat hearts): significant reduction
coronary flow after ischemia (isolated rat hearts): prevent the associated drop in coronary flow

phosphorylation of p46 [1, 8]: did not affect
Molecule: O=S(=O)(NCCNC/C=C/c1ccc(Br)cc1)c1cccc2cnccc12 [H-89]

The next lines start with the molecule.

Molecule: CN/C(=N/CCSCc1nc[nH]c1C)NC#N [cimetidine]
CK release (in words) (isolated rat hearts): reduced CK release
infarct size (in words) (isolated rat hearts): dose-dependent reduction
coronary flow after ischemia (isolated rat hearts): prevent the associated drop in coronary flow

Molecule: O=C(N[C@H](CO)[C@H](O)c1ccc([N+](=O)[O-])cc1)C(Cl)Cl [CAP, chloramphenicol]
infarct size after ischemia and reperfusion (isolated rabbit heart; 100 μg/mL CAP in buffer throughout: 15 min stabilization, 30 min global ischemia, 2 h reperfusion, mean±SEM, untreated 64.1 (±4.1)): 43.1 (±6.4)
infarct size (isolated rabbit heart; CAP administered only in the last 15 minutes of the 2 hour reperfusion (control for TTC interference)): 69.2±5.7
CK release after global ischemia (isolated rabbit heart; CAP pretreatment, 100 μg/mL): reduced
immunodetection of mitochondrial-encoded cytochrome oxidase I [4]: near-complete loss
levels of mitochondrial-encoded proteins and respiratory chain activity [5]: not sufficient to alter
Complex I State 4 ([6]; −CAP 13.74 ± 6.33): 12.09 ± 4.59 n Atoms O/min/mg
Complex II State 4 ([6]; −CAP 21.70 ± 5.89): 23.04 ± 7.32 n Atoms O/min/mg
Complex II State 3 ([6]; −CAP 85.47 ± 22.2): 83.58 ± 14.4 n Atoms O/min/mg
Complex IV State 4 ([6]; −CAP 113.99 ± 21): 116.89 ± 23 n Atoms O/min/mg
Complex I State 3 ([6]; −CAP 158.57 ± 32): 162.99 ± 31 n Atoms O/min/mg
Complex IV State 3 ([6]; −CAP 209.85 ± 40): 201.09 ± 23 n Atoms O/min/mg
infarct size, of the area at risk ([7]; CAP 20 mg/kg i.v. 30 min before 30 min occlusion, 4 h reperfusion, untreated 49.3 ±17.7): 18.3%
post-ischemic hypotension (decrease in left ventricular pressure from baseline) ([7]; CAP 20 mg/kg i.v., untreated −34.2±2.3): −13.3±2.2 mm H2O
infarct size (isolated rat hearts; CAP 300 μm before and after global no-flow ischemia (I/R+CAP), 30 min ischemia, 2 h reperfusion, SEM, n=5, untreated 43.2±3.2%): 16.0±3.6%
CK released after ischemia (isolated rat hearts; CAP administered prior to ischemia, SEM, n=5, untreated 2.25±0.28): 0.27±0.13 U/15 min
infarct size (isolated rat hearts; chloramphenicol administered immediately after ischemia (at reperfusion), n=5, untreated 43.2%): 21.7%
reduction of infarct size (isolated rat hearts; pretreatment of hearts prior to ischemia and reperfusion (summary)): about 90%
coronary flow after ischemia (isolated rat hearts): prevent the associated drop in coronary flow

Molecule: gentamicin sulfate
cardioprotection (isolated rat hearts; gentamicin in perfusion buffer): not cardioprotective

From US8759402B2, “Method to inhibit ischemia and reperfusion injury” (Radical Therapeutix, priority 2002, dated 2014)
